US20120142685A1, “ORGANIC COMPOUNDS” (priority 2007, published 2012)
Where two headings read alike, the source gives them in different places. One block for each compound: values may come before it.

How the values were obtained:
protein kinase D2 (PKD2) = target: T1, protein kinase D2 (PKD2) (Homo sapiens, UniProt Q9BZL6); assay: PKD2 TR-FRET (LANCE) kinase assay; format: biochemical
T1 construct: This assay is performed with full length wild-type enzyme purchase from Invitrogen; purchased Invitrogen
T1 sequence (Q9BZL6 1-878): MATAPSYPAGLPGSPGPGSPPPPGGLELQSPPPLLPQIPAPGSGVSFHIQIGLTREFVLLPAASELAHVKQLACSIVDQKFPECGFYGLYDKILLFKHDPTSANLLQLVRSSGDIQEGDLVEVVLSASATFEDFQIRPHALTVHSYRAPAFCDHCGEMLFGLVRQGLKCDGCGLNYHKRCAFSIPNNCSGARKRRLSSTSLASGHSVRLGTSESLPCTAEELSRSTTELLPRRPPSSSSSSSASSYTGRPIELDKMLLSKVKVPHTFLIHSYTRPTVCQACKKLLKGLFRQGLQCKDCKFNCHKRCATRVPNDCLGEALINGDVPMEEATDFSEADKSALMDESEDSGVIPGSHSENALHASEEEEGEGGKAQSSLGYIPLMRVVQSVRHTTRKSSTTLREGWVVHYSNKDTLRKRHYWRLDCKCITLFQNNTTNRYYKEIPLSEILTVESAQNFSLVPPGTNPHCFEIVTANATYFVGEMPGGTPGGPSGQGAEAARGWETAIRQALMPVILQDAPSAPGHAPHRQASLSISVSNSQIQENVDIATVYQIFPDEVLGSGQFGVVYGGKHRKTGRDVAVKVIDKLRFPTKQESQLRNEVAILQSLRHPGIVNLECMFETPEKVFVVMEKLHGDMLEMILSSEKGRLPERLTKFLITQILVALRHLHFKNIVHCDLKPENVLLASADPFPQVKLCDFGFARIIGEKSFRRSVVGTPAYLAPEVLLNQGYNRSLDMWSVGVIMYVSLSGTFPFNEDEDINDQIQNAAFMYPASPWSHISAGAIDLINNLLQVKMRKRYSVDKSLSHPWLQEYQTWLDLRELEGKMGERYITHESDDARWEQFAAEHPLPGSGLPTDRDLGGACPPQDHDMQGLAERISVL
Description: (§1) The assay to measure protein kinase D2 (PKD2) activity is a time-resolved fluorescence resonance transfer (TR-FRET) assay using PerkinElmer's LANCE™ technology. In this case, a biotinylated syntide-2 peptide is used as the substrate in this reaction. Phosphorylation of the syntide-2 substrate is detected by a specific antibody that recognizes the phosphorylated peptide. A second fluorophore, APC, is conjugated to streptavidin that binds the biotinylated syntide-2 peptide. […] Therefore, when the europium labeled secondary antibody binds on the phosphorylated peptide, it is brought into close contact with the APC and excites this fluorophore.
(§2) This assay is performed with full length wild-type enzyme purchase from Invitrogen. The reaction buffer consists of 35 mM Tris-HCl pH7.5, 5 mM MgCl2, 0.02% Tween-20, 20 μM ATP, 1 mM DTT and 0.2 μg/mL PKD2 enzyme. The enzyme reaction is initiated by the addition of 2 μM syntide-2 peptide substrate and the reaction carried out for 50 minutes at room temperature. The reaction is stopped by a stop/detection buffer consisting of 50 mM EDTA, 0.18 mg/mL rabbit polyclonal anti-phospho syntide-2 antibody, 0.5 nM europium labeled anti-rabbit IgG and 10 nM streptavidin conjugated APC. After a one hour incubation with the stop/detection buffer, the reaction is read on an Envision 2100 Reader using a LANCE™ Eu/APC dual protocol. […] IC50 values are calculated using an Activity Base (IDBS) software program.

protein kinase D3 (PKD3) = target: T2, protein kinase D3 (PKD3) (Homo sapiens, UniProt O94806); assay: PKD3 TR-FRET (LANCE) kinase assay; format: biochemical
T2 construct: This assay is performed with full length wild-type enzyme that is purchased from Invitrogen; purchased Invitrogen
T2 sequence (O94806 1-890): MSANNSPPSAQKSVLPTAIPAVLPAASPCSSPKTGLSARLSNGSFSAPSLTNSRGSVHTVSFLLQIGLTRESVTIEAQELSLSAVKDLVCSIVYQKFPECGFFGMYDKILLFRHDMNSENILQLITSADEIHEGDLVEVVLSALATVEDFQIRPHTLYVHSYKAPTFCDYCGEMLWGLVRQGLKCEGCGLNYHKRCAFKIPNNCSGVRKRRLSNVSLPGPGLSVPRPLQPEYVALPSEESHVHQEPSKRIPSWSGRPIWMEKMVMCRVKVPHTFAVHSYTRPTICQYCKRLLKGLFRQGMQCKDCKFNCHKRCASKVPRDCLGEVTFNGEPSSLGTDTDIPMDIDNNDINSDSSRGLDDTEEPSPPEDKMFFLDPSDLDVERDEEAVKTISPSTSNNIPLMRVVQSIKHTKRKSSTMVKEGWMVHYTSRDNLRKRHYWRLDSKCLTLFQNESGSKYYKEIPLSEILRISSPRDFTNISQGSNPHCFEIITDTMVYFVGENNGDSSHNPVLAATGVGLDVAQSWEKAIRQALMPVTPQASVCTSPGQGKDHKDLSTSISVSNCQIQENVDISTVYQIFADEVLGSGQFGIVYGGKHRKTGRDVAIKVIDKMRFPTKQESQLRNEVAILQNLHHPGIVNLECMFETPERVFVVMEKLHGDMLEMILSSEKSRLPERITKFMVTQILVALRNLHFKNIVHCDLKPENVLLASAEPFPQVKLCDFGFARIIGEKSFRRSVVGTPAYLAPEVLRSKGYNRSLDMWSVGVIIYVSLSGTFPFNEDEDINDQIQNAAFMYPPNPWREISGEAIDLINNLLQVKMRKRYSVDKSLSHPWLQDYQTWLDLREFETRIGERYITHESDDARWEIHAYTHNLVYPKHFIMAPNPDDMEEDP
Description: as §1, with “D3 (PKD3)” for “D2 (PKD2)”
as §2, with “that is purchased” for “purchase”, “PKD3” for “PKD2”, “LANCET™” for “LANCE™”

[1] = full length wild-type enzyme, 20 μM ATP, read-out: Inhibitory Activity PKD2
[2] = full length wild-type enzyme, 20 μM ATP, read-out: Inhibitory Activity PKD3

Structure (SMILES): CN(C)CCNc1nc(-c2ccnc(NC3CCCCC3)c2)cc2cnccc12 [Example 8, N-[3-(2-Cyclohexylaminopyridin-4-yl)-[2,6]naphthyridin-1-yl]-N′,N′-dimethylethane-1,2-diamine]
- IC50 (protein kinase D2 (PKD2); [1]): 259 nM
- IC50 (protein kinase D3 (PKD3); [2]): 58 nM

Structure (SMILES): CC(C)Nc1cc(-c2cc3cnccc3c(NCCO)n2)ccn1 [Example 6, 2-[3-(2-Isopropylaminopyridin-4-yl)-[2,6]naphthyridin-1-ylamino]ethanol]
- IC50 (protein kinase D2 (PKD2); [1]): 497 nM
- IC50 (protein kinase D3 (PKD3); [2]): 120 nM

Structure (SMILES): O=C(NC1CC1)C1CCN(c2nc(-c3ccnc(NC4CCOCC4)c3)cc3cnccc23)CC1 [Example 17, 1-{3-[2-(Tetrahydropyran-4-ylamino)pyridin-4-yl]-[2,6]naphthyridin-1-yl}piperidine-4-carboxylic acid cyclopropylamide]
- IC50 (protein kinase D2 (PKD2); [1]): 14 nM
- IC50 (protein kinase D3 (PKD3); [2]): 3 nM

Structure (SMILES): CNc1cc(-c2cc3cnccc3c(NC)n2)ccn1 [Example 2, 1-Methylamino-3-(2-methylaminopyridin-4-yl)-[2,6]-naphthyridine]
- IC50 (protein kinase D2 (PKD2)): 753 nM
- IC50 (protein kinase D3 (PKD3)): 450 nM

Structure (SMILES): NC(=O)C1CCN(c2nc(-c3ccnc(NC4CCCCC4)c3)cc3cnccc23)CC1 [Example 10, 1-[3-(2-Cyclohexylaminopyridin-4-yl)-[2,6]naphthyridin-1-yl]piperidine-4-carboxylic acid amide]
- IC50 (protein kinase D2 (PKD2)): 414 nM
- IC50 (protein kinase D3 (PKD3); [2]): 83 nM

Structure (SMILES): CN1CCN(c2nc(-c3ccnc(NC4CCCCC4)c3)cc3cnccc23)CC1 [Example 13, Cyclohexyl-{4-[1-(4-methylpiperazin-1-yl)-[2,6]naphthyridin-3-yl]pyridin-2-yl}amine]
- IC50 (protein kinase D2 (PKD2)): 14 nM
- IC50 (protein kinase D3 (PKD3)): 1 nM

Structure (SMILES): CN(C)CCNc1nc(-c2ccnc(Nc3ccccc3)c2)cc2cnccc12 [Example 9, N,N-Dimethyl-N′-[3-(2-phenylaminopyridin-4-yl)-[2,6]naphthyridin-1-yl]-ethane-1,2-diamine]
- IC50 (protein kinase D2 (PKD2); [1]): 169 nM
- IC50 (protein kinase D3 (PKD3); [2]): 39 nM

Structure (SMILES): CCNC(=O)N1CCN(c2nc(-c3ccnc(Nc4ccn(C)n4)c3)cc3cnccc23)CC1 [Example 18, 4-{3-[2-(1-Methyl-1H-pyrazol-3-ylamino)pyridin-4-yl]-[2,6]naphthyridin-1-yl}piperazine-1-carboxylic acid ethylamide]
- IC50 (protein kinase D2 (PKD2); [1]): 127 nM
- IC50 (protein kinase D3 (PKD3); [2]): 30 nM

Structure (SMILES): c1cc2c(NC3CCCNC3)nc(-c3ccnc(NC4CCCCC4)c3)cc2cn1 (stereo not shown) [Example 15, [3-(2-Cyclohexylaminopyridin-4-yl)-[2,6]naphthyridin-1-yl]piperidin-3-ylamine]
- IC50 (protein kinase D2 (PKD2); [1]): 102 nM
- IC50 (protein kinase D3 (PKD3); [2]): 19 nM

Structure (SMILES): c1ccc(Nc2cc(-c3cc4cnccc4c(N4CCNCC4)n3)ccn2)cc1 [Example 4, Phenyl-[4-(1-piperazin-1-yl-[2,6]naphthyridin-3-yl)pyridin-2-yl]amine]
- IC50 (protein kinase D2 (PKD2); [1]): 40 nM
- IC50 (protein kinase D3 (PKD3); [2]): 8 nM

Structure (SMILES): c1cc2c(N3CCNCC3)nc(-c3ccnc(NC4CCCCC4)c3)cc2cn1 [Example 3, Cyclohexyl-[4-(1-piperazin-1-yl-[2,6]naphthyridin-3-yl)pyridin-2-yl]amine]
- IC50 (protein kinase D2 (PKD2); [1]): 0.3 nM
- IC50 (protein kinase D3 (PKD3); [2]): 0.3 nM

Structure (SMILES): OCCNc1nc(-c2ccnc(NC3CCCCC3)c2)cc2cnccc12 [Example 5, 2-[3-(2-Cyclohexylaminopyridin-4-yl)-[2,6]naphthyridin-1-ylamino]ethanol]
- IC50 (protein kinase D2 (PKD2); [1]): 1370 nM
- IC50 (protein kinase D3 (PKD3); [2]): 339 nM

Structure (SMILES): COc1cccc(Nc2cc(-c3cc4cnccc4c(NCCO)n3)ccn2)c1 [Example 7]
- IC50 (protein kinase D2 (PKD2); [1]): 195 nM
- IC50 (protein kinase D3 (PKD3); [2]): 62 nM

The remaining lines, values ahead:

- IC50 (protein kinase D2 (PKD2); [1]): 6 nM
- IC50 (protein kinase D3 (PKD3); [2]): 1 nM
Structure (SMILES): c1cc2c(NC3CCNC3)nc(-c3ccnc(NC4CCCCC4)c3)cc2cn1 (stereo not shown) [Example 14, [3-(2-Cyclohexylaminopyridin-4-yl)-[2,6]naphthyridin-1-yl]pyrrolidin-3-ylamine]

- IC50 (protein kinase D2 (PKD2); [1]): 120 nM
- IC50 (protein kinase D3 (PKD3); [2]): 10 nM
Structure (SMILES): COCCNc1cc(-c2cc3cnccc3c(N3CCNCC3)n2)ccn1 [Example 21, (2-Methoxyethyl)-[4-(1-piperazin-1-yl-[2,6]naphthyridin-3-yl)-pyridin-2-yl]amine]

- IC50 (protein kinase D2 (PKD2); [1]): 2 nM
- IC50 (protein kinase D3 (PKD3); [2]): 0.4 nM
Structure (SMILES): Cn1ccc(Nc2cc(-c3cc4cnccc4c(N4CCC(C(N)=O)CC4)n3)ccn2)n1 [Example 19, 1-{3-[2-(1-Methyl-1H-pyrazol-3-ylamino)pyridin-4-yl]-[2,6]naphthyridin-1-yl}piperidine-4-carboxylic acid amide]

- IC50 (protein kinase D2 (PKD2); [1]): 63 nM
- IC50 (protein kinase D3 (PKD3); [2]): 21 nM
Structure (SMILES): CN(C)CC1CCN(c2nc(-c3ccnc(NC4CCCCC4)c3)cc3cnccc23)CC1 [Example 12, Cyclohexyl-{4-[1-(4-dimethylaminomethylpiperidin-1-yl)-[2,6]naphthyridin-3-yl]pyridin-2-yl}amine]

- IC50 (protein kinase D2 (PKD2); [1]): 59 nM
- IC50 (protein kinase D3 (PKD3); [2]): 9 nM
Structure (SMILES): Cn1ccc(Nc2cc(-c3cc4cnccc4c(N4CCC5(CCNC5=O)CC4)n3)ccn2)n1 [Example 20, 8-{3-[2-(1-Methyl-1H-pyrazol-3-ylamino)pyridin-4-yl]-[2,6]naphthyridin-1-yl}-2,8-diaza-spiro[4.5]decan-1-one]

- IC50 (protein kinase D2 (PKD2); [1]): 137 nM
- IC50 (protein kinase D3 (PKD3); [2]): 23 nM
Structure (SMILES): CC(=O)N1CCN(c2nc(-c3ccnc(NC4CCCCC4)c3)cc3cnccc23)CC1 [Example 11, 1-{4-[3-(2-Cyclohexylaminopyridin-4-yl)-[2,6]naphthyridin-1-yl]piperazin-1-yl}ethanone]

- IC50 (protein kinase D2 (PKD2)): 11 nM
- IC50 (protein kinase D3 (PKD3); [2]): 2 nM
Structure (SMILES): O=C(NCCO)C1CCN(c2nc(-c3ccnc(NC4CCOCC4)c3)cc3cnccc23)CC1 [Example 16, 1-{3-[2-(Tetrahydropyran-4-ylamino)pyridin-4-yl]-[2,6]naphthyridin-1-yl}piperidine-4-carboxylic acid (2-hydroxyethyl)amide]
